Data as given in US20220127297A1, “Novel Antibacterial 3"-Derivatives Of 4,6-Disubstituted 2,5-Dideoxystreptamine Aminoglycoside Antibiotics” (AGILeBiotics B.V., priority 2018, published 2022).
≈ marks a conversion by molar mass, not a printed value. Where two headings read alike, the source gives them in different places.

How the values were obtained:
E. faecalis DSM 2570 = experiment: MIC 50, broth micro-dilution, DSM strains; format: cell-based, Enterococcus faecalis
Text: (§1) 3.2 Against Selected Bacteria of the ESKAPE Panel and Enterococcus faecalis (DSM Strains)
(§2) Tested reference compounds. Amikacin sulfate (Cat. No. 01693, Chem-Impex), Gentamicin sulfate (Cat. No. G4918, Sigma Aldrich).
(§3) Microbial strains. Enterococcus faecalis DSM 2570, Klebsiella pneumoniae DSM 26371, Acinetobacter baumannii DSM 105126, Enterobacter cloacae 3MRGN (clinical bronchial aspirate isolate).
(§4) Culture media and equipment. BBL™ Mueller Hinton Broth 2 (Lot. BCBW1143, Cat. No. 70192, Sigma); Trypcase Soy Blood-agar plates (Cat. No. 43001, Biomérieux); Cryoinstant (contains 15% glycerol; Cat. No. 822070ZA, VWR International); GasPak™ EZ Standard Incubation Container (Cat. No. 260671, Becton Dickinson); GasPak™ EZ Campy Container System Sachets (Cat. No. 260680, Becton Dickinson); 96-well deep well plate, 1 mL (Cat. No. 0030506.200, Eppendorf); Plate lid (Cat. No. 0030131.525, Eppendorf); 96-well plate, F-bottom (Cat. No. 260860, Nunc); Incubator (Sartorius Certomat BS-1); Laminar flow (Heraeus HS12); UV/VIS meter (Perkin Elmer Lambda Bio+); Platereader (Tecan Infinite M200 Pro).
(§5) Compound preparation. Compounds were prepared in MH2 media at a concentration of 5 mM and stored at 4° C. For testing, solutions of 128 μM were prepared in MH2, for tests against E. faecalis a solution of 512 μM was prepared. Out of these working solutions, 400 μL was transferred to wells in the first column of 96-well deep well plates. Each compound was transferred in triplicate. Plates were previously filled with 200 μL of MH2 media in all wells except for the wells in the first column. After compound and antibiotic addition, the compounds were serial two-fold diluted by transferring 200 μL from the first to the second column, then from the second to the third column and so on. Finally, 200 μL was removed from the last column.
(§6) Inoculum preparation. Microorganisms used were all revived from 15% glycerol storage in Croinstant tubes at −28° C. by plating them on blood agar plates. A. baumanni, and E. cloacae were grown aerobically at 37° C., E. faecalis was grown microaerophilically at 37° C., and K. pneumoniae was grown aerobically at 37° C. Plates were stored at 4° C. for up to two weeks, after which new plates were prepared from −28° C. A single colony was inoculated in MH2 media and grown at 37° C. and 200 rpm to an optical density (measured by UV/Vis spectroscopy) of 0.6-0.8 at 600 nm. Out of these suspensions, actual inoculums were prepared by diluting them to an optical density of 0.1 in MH2 media. From these inoculums, 200 μL was transferred to each well, resulting in a final compound concentration range of 64 μM-31.3 nM for, K. pneumoniae, A. baumanni, and E. cloacae, and 256 μM-125 nM for E. faecalis. Plates inoculated with E. faecalis were placed inside a GasPak™ Container System with GasPak™ Campy Container System sachets. All plates were incubated at 200 rpm for 18 h under the microorganism culturing conditions mentioned above.
(§7) MIC determination. After 18 h of growth, 200 μL was transferred to a 96-well F-bottom plate. The optical density was determined by a plate reader at 600 nm, with 10 s shaking before reading. Triplicate measurements were averaged, and a growth curve was plotted in Excel. The first column in which the growth reached half the value of maximum growth was determined as the MIC50 value for that particular compound.
(§8) MIC50. The MIC50 of a compound was assigned at which the bacterial growth reached half the value of maximum growth.

K. pneumoniae DSM 26371 = experiment: MIC 50, broth micro-dilution, DSM strains; format: cell-based, Klebsiella pneumoniae
Text: as §1, §2, §3, §4, §5, §6, §7, §8

[1] = Enterococcus faecalis, DSM2570, read-out: MIC 50
[2] = Klebsiella pneumoniae, DSM26371, K. pneumoniae DSM 26371, read-out: MIC 50

SMILES | MIC50 (E. faecalis DSM 2570) [µM] | MIC50 (K. pneumoniae DSM 26371; K. pneumoniae DSM 26371) [µM] | MIC50 (E. faecalis DSM 2570; [1]) [µM] | MIC50 (K. pneumoniae DSM 26371; [2]) [µM]
NCCC(O)C(=O)NC1CC(N)C(OC2OC(CN)C(O)C(O)C2N)C(O)C1OC1OC(CO)C(O)C(N)C1O (centres unmarked) [ABX4001, KanaB-AHB] | 32 to 64 | 0.5 (≈ 0.292 µg/mL) |  | 
N=C(NC[C@@H]1CCNC1)NC1[C@@H](O)C(OC2[C@@H](F)[C@H](O[C@H]3OC(CN)[C@@H](O)CC3N)C(N)C[C@H]2NC(=O)[C@@H](O)CCN)O[C@H](CO)[C@H]1O (stereo partly drawn) [ABX5039, Tobra-AHB-F-Gua (R) pyrrolidine-3-ylmethyl] |  |  | 16 (≈ 11.1 µg/mL) | 0.5 (≈ 0.348 µg/mL)
N=C(NC[C@H]1CNCCO1)NC1[C@@H](O)C(OC2[C@@H](F)[C@H](O[C@H]3OC(CN)[C@@H](O)CC3N)C(N)C[C@H]2NC(=O)[C@@H](O)CCN)O[C@H](CO)[C@H]1O (stereo partly drawn) [ABX5043, Tobra-AHB-F-Gua (R) morpholin-2-yl methyl] |  |  | 16 (≈ 11.4 µg/mL) | 0.5 (≈ 0.356 µg/mL)
N=C(NCCN)NC1C(O)[C@@H](CO)OC(OC2C(F)[C@H](O[C@H]3OC(CN)[C@@H](O)CC3N)C(N)C[C@H]2NC(=O)[C@@H](O)CCN)[C@@H]1O (some centres unmarked) [ABX5020, Tobra-AHB-F-Gua-2-amino-ethyl] |  |  | 4 to 8 (≈ 2.62 to 5.25 µg/mL) | 0.5 (≈ 0.328 µg/mL)
N=C(N)NC1[C@@H](O)C(OC2[C@@H](F)[C@H](O[C@H]3OC(CN)[C@@H](O)[C@H](O)C3O)C(N)C[C@H]2NC(=O)[C@@H](O)CCN)O[C@H](CO)[C@H]1O (stereo partly drawn) [ABX3003, 3′epi-KanaA-AHB-F-Gua] |  |  | 64 (≈ 40.3 µg/mL) | 0.5 (≈ 0.315 µg/mL)
N=C(NCc1cnc[nH]1)NC1[C@@H](O)C(OC2[C@@H](F)[C@H](O[C@H]3OC(CN)[C@@H](O)CC3N)C(N)C[C@H]2NC(=O)[C@@H](O)CCN)O[C@H](CO)[C@H]1O (some centres unmarked) [ABX5050, Tobra-AHB-F-Gua imidazol-5-yl methyl] |  |  | 8 to 16 (≈ 5.54 to 11.1 µg/mL) | 0.5 (≈ 0.346 µg/mL)
NCC[C@H](O)C(=O)N[C@@H]1CC(N)[C@@H](O[C@H]2OC(CN)[C@@H](O)CC2N)[C@H](F)C1OC1O[C@H](CO)[C@@H](O)C(N)[C@H]1O (some centres unmarked) [ABX5024, Tobra-AHB-F] | 16 to 32 | 1 (≈ 0.571 µg/mL) |  | 
N=C(N)NC1[C@@H](O)C(OC2[C@@H](O)[C@H](O[C@H]3OC(CN)[C@@H](O)[C@H](O)C3N)C(N)C[C@H]2NC(=O)[C@@H](O)CCN)O[C@H](CO)[C@H]1O (some centres unmarked) [ABX4009, KanaB-AHB-Gua] | 64 to 128 | 1 (≈ 0.627 µg/mL) |  | 
NCCC(O)C(=O)NC1CC(N)C(OC2OC(CN)C(O)C(O)C2O)C(F)C1OC1OC(CO)C(O)C(N)C1O (stereo not drawn) [ABX3005, 3′Epi-KanaA-AHB-F] | 64 (≈ 37.6 µg/mL) | 1 (≈ 0.588 µg/mL) |  | 
N=C(N)NC1[C@@H](O)C(OC2[C@@H](F)[C@H](O[C@H]3OC(CN)[C@@H](O)[C@H](O)C3N)C(N)C[C@H]2NC(=O)[C@@H](O)CCN)O[C@H](CO)[C@H]1O (stereo partly drawn) [ABX4004, 3′epi-KanaB-AHB-F-Gua] | 16 to 32 | 0.25 (≈ 0.157 µg/mL) |  | 
N=C(NCC1CCCO1)NC1[C@@H](O)C(OC2[C@@H](F)[C@H](O[C@H]3OC(CN)[C@@H](O)CC3N)C(N)C[C@H]2NC(=O)[C@@H](O)CCN)O[C@H](CO)[C@H]1O (some centres unmarked) [ABX5046, Tobra-AHB-F-Gua tetrahydrofuran-2-yl methyl] |  |  | 8 to 16 (≈ 5.57 to 11.1 µg/mL) | 0.5 (≈ 0.348 µg/mL)
N=C(N)NC1[C@@H](O)C(OC2[C@@H](O)[C@H](O[C@H]3OC(CN)[C@@H](O)CC3N)C(N)C[C@H]2NC(=O)[C@@H](O)CCN)O[C@H](CO)[C@H]1O (some centres unmarked) [ABX5005, Tobra-AHB-Gua] | 16 (≈ 9.77 µg/mL) | 0.25 (≈ 0.153 µg/mL) |  | 
N=C(NCCCO)NC1[C@@H](O)C(OC2[C@@H](F)[C@H](O[C@H]3OC(CN)[C@@H](O)CC3N)C(N)C[C@H]2NC(=O)[C@@H](O)CCN)O[C@H](CO)[C@H]1O (some centres unmarked) [ABX5041, Tobra-AHB-F-Gua 3-hydroxy-propyl] |  |  | 4 to 8 (≈ 2.68 to 5.37 µg/mL) | 0.5 (≈ 0.335 µg/mL)
